Our source for the inhibition values is US7709484B1, “Substituted melanocortin receptor-specific piperazine compounds” (Palatin Technologies, Inc., priority 2004, dated 2010).

One assay has as its target hMC1-R (Homo sapiens, UniProt Q01726). Briefly: Competitive inhibition binding assay, 125I-NDP-α-MSH, hMC1-R membranes. Particulars: 1 μM test compound; 0.4 nM 125I-NDP-α-MSH; mean of triplicate; results less than 0% reported as 0%; read-out: Inhibition at 1 μM MC1-R (human). The method, then: (§1) Competitive inhibition assay. A competitive inhibition binding assay was conducted using membranes prepared from hMC1-R or B-16 mouse melanoma cells (containing MC1-R), hMC3-R, hMC4-R, and hMC5-R, and using 0.4 nM ^125I-NDP-α-MSH (New England Nuclear, Boston, Mass., USA) in 50 mM HEPES buffer containing 1 mM MgCl2, 2 mM CaCl2, and 5 mM KCl, at pH 7.2. The assay tube also contained a chosen concentration of the test compound of this invention, typically a 1 μM concentration, for determining its efficacy in inhibiting the binding of ^125I-NDP-α-MSH to its receptor. Non-specific binding was measured by complete inhibition of binding of ^125I-NDP-α-MSH in the assay with the presence of 1 μM α-MSH.
(§2) Incubation was for 90 minutes at room temperature, after which the assay mixture was filtered and the membranes washed three times with ice cold buffer. The filter was dried and counted in a gamma counter for remaining radioactivity bound to the membranes. 100% specific binding was defined as the difference in radioactivity (cpm) bound to cell membranes in the absence and presence of 1 μM α-MSH. The cpm obtained in the presence of test compounds are normalized with respect to 100% specific binding to determine the percent inhibition of ^125I-NDP-a-MSH binding. Each assay was conducted in triplicate and the actual mean values are described, with results less than 0% reported as 0%.

Assay [1] concerns the target T1, B-16 mouse melanoma cells (containing MC1-R) (Mus musculus, UniProt Q01727).
T1 construct: B-16 mouse melanoma cells (containing MC1-R); endogenous in cells; host or cells: B-16 mouse melanoma cells
Briefly: Competitive inhibition binding assay, 125I-NDP-α-MSH, B-16 mouse melanoma cell membranes. Particulars: 1 μM test compound; 0.4 nM 125I-NDP-α-MSH; mean of triplicate; results less than 0% reported as 0%; read-out: Inhibition at 1 μM MC1-R (murine). The procedure:
as §1, §2

In another assay the target is hMC3-R (Homo sapiens, UniProt P41968). Briefly: Competitive inhibition binding assay, 125I-NDP-α-MSH, hMC3-R membranes. The settings on record: 1 μM test compound; 0.4 nM 125I-NDP-α-MSH; mean of triplicate; results less than 0% reported as 0%; read-out: Inhibition at 1 μM MC3-R. The procedure:
as §1, §2

In a further assay the target is hMC4-R (Homo sapiens, UniProt P32245). Briefly: Competitive inhibition binding assay, 125I-NDP-α-MSH, hMC4-R membranes. The settings on record: 1 μM test compound; 0.4 nM 125I-NDP-α-MSH; mean of triplicate; results less than 0% reported as 0%; read-out: Inhibition at 1 μM MC4-R. The method, then: as §1, §2
Chain of hMC4-R (P32245 whole entry): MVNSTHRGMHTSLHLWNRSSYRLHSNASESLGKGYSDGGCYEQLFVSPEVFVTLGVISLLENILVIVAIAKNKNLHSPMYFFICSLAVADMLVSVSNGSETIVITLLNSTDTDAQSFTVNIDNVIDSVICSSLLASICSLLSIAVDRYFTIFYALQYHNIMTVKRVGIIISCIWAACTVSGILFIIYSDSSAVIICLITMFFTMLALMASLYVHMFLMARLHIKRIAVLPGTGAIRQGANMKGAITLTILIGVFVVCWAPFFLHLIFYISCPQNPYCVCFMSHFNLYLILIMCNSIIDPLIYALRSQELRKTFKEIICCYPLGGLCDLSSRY
Another assay has as its target hMC5-R (Homo sapiens, UniProt P33032). Briefly: Competitive inhibition binding assay, 125I-NDP-α-MSH, hMC5-R membranes. Particulars: 1 μM test compound; 0.4 nM 125I-NDP-α-MSH; mean of triplicate; results less than 0% reported as 0%; read-out: Inhibition at 1 μM MC5-R. The method, then:
as §1, §2

Chain of hMC1-R (Q01726 whole entry): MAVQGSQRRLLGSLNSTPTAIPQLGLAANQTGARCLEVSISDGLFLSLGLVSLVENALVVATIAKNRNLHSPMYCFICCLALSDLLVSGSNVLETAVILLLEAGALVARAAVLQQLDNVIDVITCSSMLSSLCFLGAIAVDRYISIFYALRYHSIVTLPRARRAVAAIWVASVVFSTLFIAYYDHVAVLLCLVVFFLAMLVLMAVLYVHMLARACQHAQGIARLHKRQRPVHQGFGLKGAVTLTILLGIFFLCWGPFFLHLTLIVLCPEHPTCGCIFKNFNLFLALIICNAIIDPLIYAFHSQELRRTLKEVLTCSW
Chain of hMC5-R (P33032 whole entry): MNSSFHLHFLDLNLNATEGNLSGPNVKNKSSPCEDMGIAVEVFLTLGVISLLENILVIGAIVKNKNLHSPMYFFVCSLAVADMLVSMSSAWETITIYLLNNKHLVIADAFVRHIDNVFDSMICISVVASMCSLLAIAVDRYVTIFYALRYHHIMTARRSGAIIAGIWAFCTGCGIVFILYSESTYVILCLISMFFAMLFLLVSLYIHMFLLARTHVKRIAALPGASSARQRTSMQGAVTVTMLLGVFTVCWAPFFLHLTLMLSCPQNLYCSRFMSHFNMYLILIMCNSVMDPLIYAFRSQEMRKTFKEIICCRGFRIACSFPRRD
T1 sequence (Q01727 whole entry): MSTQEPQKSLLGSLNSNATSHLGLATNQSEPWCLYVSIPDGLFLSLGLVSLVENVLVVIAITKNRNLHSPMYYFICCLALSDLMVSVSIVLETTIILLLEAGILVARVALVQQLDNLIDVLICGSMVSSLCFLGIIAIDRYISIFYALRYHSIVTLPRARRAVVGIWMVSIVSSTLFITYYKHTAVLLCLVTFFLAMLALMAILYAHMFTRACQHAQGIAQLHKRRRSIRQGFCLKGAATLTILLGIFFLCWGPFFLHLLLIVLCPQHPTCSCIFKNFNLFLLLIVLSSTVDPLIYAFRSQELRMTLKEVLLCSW
Chain of hMC3-R (P41968 whole entry): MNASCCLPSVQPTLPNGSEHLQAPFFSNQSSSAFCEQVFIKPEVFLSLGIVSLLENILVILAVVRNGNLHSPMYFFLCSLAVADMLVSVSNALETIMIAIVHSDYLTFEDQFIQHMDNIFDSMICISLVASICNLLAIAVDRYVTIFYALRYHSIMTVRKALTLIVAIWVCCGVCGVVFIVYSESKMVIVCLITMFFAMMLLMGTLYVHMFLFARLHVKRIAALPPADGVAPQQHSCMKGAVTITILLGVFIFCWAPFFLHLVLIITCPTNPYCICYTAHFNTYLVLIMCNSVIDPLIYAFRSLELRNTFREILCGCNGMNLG

On to `N[C@H](Cc1ccccc1)C(=O)N1C[C@@H](Cc2ccc3ccccc3c2)NC[C@@H]1Cc1ccccc1` [Example 7, (R)-2-Amino-1-((2S,5R)-2-benzyl-5-naphthalen-2-ylmethyl-piperazin-1-yl)-3-phenyl-propan-1-oneylamino-3-phenyl-propan-1-one], for which the inhibition at 1 µM on hMC1-R is 17%; in assay [1], 0%; at hMC3-R it was 9%; on hMC4-R, 16%; at hMC5-R, 13%.
As to `N[C@@H](Cc1ccccc1)C(=O)N1C[C@H](Cc2ccccc2)NC[C@H]1Cc1ccc2ccccc2c1` [Example 4, (S)-2-Amino-1-((2R,5S)-5-benzyl-2-naphthalen-2-ylmethyl-piperazin-1-yl)-3-phenyl-propan-1-one], the inhibition at 1 µM came out at 6% on hMC1-R, 13% on hMC3-R, 25% at hMC4-R and 11% on hMC5-R.
The like results for `O=C(CCc1ccc(Cl)cc1Cl)N1C[C@H](Cc2ccccc2)NC[C@H]1Cc1ccc2ccccc2c1` [Example 2, 1-((2R,5S)-5-Benzyl-2-naphthalen-2-ylmethyl-piperazin-1-yl)-3-(2,4-dichloro-phenyl)-propan-1-one] were, in that order, 9%, 9%, 18% and 6%.
The like results for `N[C@H](Cc1ccccc1)C(=O)N1C[C@H](Cc2ccccc2)NC[C@H]1Cc1ccc2ccccc2c1` [Example 1, (R)-2-Amino-1-((2R,5S)-5-benzyl-2-naphthalen-2-ylmethyl-piperazin-1-yl)-3 phenyl-propan-1-one] were, in that order, 0%, 14%, 33% and 8%.
In the case of `N[C@H](Cc1ccc(Cl)cc1Cl)C(=O)N1C[C@H](Cc2ccccc2)NC[C@H]1Cc1ccc2ccccc2c1` [Example 5, (R)-2-Amino-1-((2R,5S)-5-benzyl-2-naphthalen-2-ylmethyl-piperazin-1-yl)-3-(2,4-dichloro-phenyl)-propan-1-one], the inhibition at 1 µM on hMC1-R was found to be 0%; at hMC3-R, 12%; at hMC4-R, 34%; at hMC5-R it was 22%.
On to `N[C@H](Cc1ccccc1)C(=O)N1C[C@@H](Cc2ccccc2)NC[C@@H]1Cc1ccccc1` [Example 17, (R)-2-Amino-1-((2S,5R)-2,5-dibenzyl-piperazin-1-yl)-3-phenyl-propan-1-One], for which the inhibition at 1 µM turned out to be 0% in assay [1], 0% at hMC3-R, 6% at hMC4-R and 3% on hMC5-R.
With `N[C@H](Cc1ccc2ccccc2c1)C(=O)N1C[C@H](Cc2ccccc2)NC[C@H]1Cc1ccc2ccccc2c1` [Example 3, (R)-2-Amino-1-((2R,5S)-5-benzyl-2-naphthalen-2-ylmethyl-piperazin-1-yl)-3-naphthalen-2-yl-propan-1-one], the inhibition at 1 µM is 10% at hMC1-R, 19% at hMC3-R, 39% at hMC4-R and 21% on hMC5-R.
`O=C(N[C@H](Cc1ccc(Cl)cc1)C(=O)N1CCN[C@H](Cc2ccc3ccccc3c2)C1)[C@H]1Cc2ccccc2CN1` [Example 21, (R)-1,2,3,4-Tetrahydro-isoquinoline-3-carboxylic acid [(R)-1-(4-chloro-benzyl)-2-((R)-3-naphthalen-2-ylmethyl-piperazin-1-yl)-2-oxo-ethyl]-amide]: the inhibition at 1 µM turned out to be 6% in assay [1], 26% on hMC3-R, 30% on hMC4-R and 14% at hMC5-R.
Turning to `N[C@H](Cc1ccccc1)C(=O)N1C[C@H](Cc2ccccc2)NC[C@H]1Cc1ccccc1` [Example 6, (R)-2-Amino-1-((2R,5S)-2,5-dibenzyl-piperazin-1-yl)-3-phenyl-propan-1-one], the inhibition at 1 µM on hMC1-R was found to be 0%; in assay [1] it was 0%; on hMC3-R, 12%; on hMC4-R it was 4%; at hMC5-R it was 13%.
